Measured values published in patent US20100068692A1, “ANTIFREEZE GLYCOPROTEIN ANALOGUES AND USES THEREOF” (UNIVERSITY OF OTTAWA, priority 2008, published 2010).
“Also recorded” adds a separate entry of the source.

Experiments:
[1] = Thermal hysteresis (TH), microcapilliary method
[2] = Nanolitre osmometry of carbohydrate solutions (Experiment 2); details: 10 mg/mL solutions in double-distilled water
Method: Nanoliter osmometry was performed using a nanoliter osmometer (Clifton Technical Physics, Hartford, N.Y.) as described by Chakrabartty and Hew (Chakrabartty, A.; Hew, C. L. Eur. J. Biochem. 1991, 202, 1057-1063). All measurements were made in doubly distilled water. Ice crystal morphology was observed through a Leitz compound microscope equipped with an Olympus 20× (infinity corrected) objective, Leitz Periplan 32× photo eyepiece and a Hitachi KP-M2U CCD camera connected to a Toshiba MV13K1 TV/VCR system. Still images were captured directly using a Nikon CoolPix digital camera.
It has been proposed that the optimal distance between hydroxyl groups is 4.2-4.5 Angstroms (Baruch, E.; Belostotskii, A. M.; Mastai, Y. J. Mol. Struct. 2008, 874, 170).

[3] = isentropic, value x10^4, aqueous solution at 298 K; cited from earlier work
[4] = RI assay, splat cooling with domain recognition software (Experiment 2)
Method: Sample analysis for RI activity was performed using the “splat cooling” method as described previously (Knight, C. A.; Hallet, J.; DeVries, A. L. Cryobiology, 1998, 25, 55). In this method, the analyte is dissolved in phosphate buffered saline (PBS) solution and a 10 μL drop of this solution is dropped from a micropipette through a two metre high plastic tube (10 cm in diameter) onto a block of polished aluminum pre-cooled to approximately −80° C. The droplet freezes instantly on the polished aluminum block and is approximately 1 cm in diameter and 20 μm thick. This wafer is then carefully removed from the surface of the block and transferred to a cryostage held at −6.4° C. for annealing. After a period of 30 minutes, the wafer was photographed between crossed polarizing filters using a digital camera (Nikon CoolPix 5000) fitted to the microscope. A total of three images are taken from each wafer. During flash freezing, ice crystals spontaneously nucleate from the super-cooled solution. These initial crystals are relatively homogenous in size and quite small. During the annealing cycle recrystallization occurs, resulting in a dramatic increase in ice crystal size. A quantitative measure of the difference in recrystallization inhibition of two compounds X and Y is the difference in the dynamics of the ice crystal size distribution. […] This processing employed of the Microsoft Windows Graphical User Interface to allow a user to visually demarcate and store the vertices of ice domains in a digital micrograph. […] To eliminate the need to fully process each micrograph, an algorithm was developed to randomly display a number of x/y locations. The algorithm made use of a built-in pseudo random number generator (rand(x)) and was written so that no two locations were closer than 1/10th the field of view of the micrograph. The formula for the area of a polygon that is not self-intersecting and contains no holes is then given by Eq.2,
where N is the number of vertices, and x0, y0 to xN−1, yN−1 are the vertices circumventing the polygon in a clockwise direction. The point x0, y0 is assumed to be equivalent to the point xN, yN. The software was written in C using Microsoft Visual Studio 6.0 on a Pentium class personal computer running Microsoft Windows 2000 or XP. All data was plotted and analyzed using Microsoft Excel.

[5] = Recrystallization inhibition (RI) assay, mean largest grain size (Experiment 1); details: carbohydrate concentration corrected to 0.021 mmole/L (FIG. 3)
Method: All measurements were performed in triplicate. The Y-axis depicts the mean largest grain size (MLGS in mm^2) of ice crystals measured directly from photographs of the sample, as described previously (Raymond, J. A. D., A. L., Proc. Natl. Acad. Sci. USA 1977, 74, 2589).
All samples were compared to a solution of phosphate buffered saline (PBS) which was used as a negative control and a solution of AFGP 8 isolated from Gagus ogac (generously provided by AquaBounty Farms). Each solution was tested at three different concentrations in order to rule out any non-specific RI effects. The Y-axis in FIG. 5 represents mean largest grain size (MLGS) where small bars are representative of potent recrystallization-inhibition activity.
The Y-axis in FIG. 7 represents the mean largest grain size (MLGS) which is an average ice crystal surface area for each sample.

[6] = Nanoliter osmometer: thermal hysteresis and dynamic ice shaping (Experiment 1); details: without antifreeze the crystal is perfectly round, 'Identical images' refers to that, 13: 0.0033 mmole/L in doubly distilled water
Method: FIG. 4 (A) depicts a single ice crystal in the absence of biological antifreeze. Notice that the crystal is perfectly round and has no facets or edges.
AFGP analogues 18a-c were assayed for antifreeze protein-specific activity using nanoliter osmometry and a recrystallization-inhibition assay.

**Q.** Which “temperature below the melting point at which rapid crystal growth occurred / solution freezes” value [1] does the source give for `OCC(O)CO` [glycerol] here?
**A.** Its value is −0.01 °C.

**Q.** Which results are given for `OCC1O[C@@H](O)C(O)[C@@H](O)[C@@H]1O` (stereo partly drawn) [D-glucose]?
**A.** Melting Point [2]: −0.055 °C; Molar Compressibility (K2°(s)x10^4) [3]: −17.6 cm^3 mol^−1 bar^−1

**Q.** For `OCC1O[C@@H](O)C(O)[C@@H](O)[C@H]1O` (stereo partly shown) [talose], which “Molar Compressibility (K2°(s)x10^4)” value [3] is on record?
**A.** The value was −11.9 cm^3 mol^−1 bar^−1.

**Q.** Which “RI activity (in words)” value ([4]; 0.022 M in PBS solution) does the source give for `OCC1O[C@H](OCC2O[C@@H](O)C(O)C(O)[C@@H]2O)C(O)C(O)[C@H]1O` (stereo partly shown) [melibiose] here?
**A.** The value was “is the most potent”.

**Q.** And the “Melting Point” value [2]?
**A.** Its value is −0.17 °C.

**Q.** What about the “Molar Compressibility (K2°(s)x10^4)” value [3] of the same molecule?
**A.** The value was −31.2 cm^3 mol^−1 bar^−1.

**Q.** Which results are given for `C[S+](C)[O-]` [DMSO, dimethylsulfoxide]?
**A.** RI activity (in words) ([4]; 0.1% (v/v) solution in PBS): failed to inhibit recrystallization; RI activity (in words) ([4]; 4% (v/v) solution in PBS): produced a significant RI effect

**Q.** With `OCC1O[C@@H](O)C(O)[C@@H](O)[C@H]1O` (stereo partly drawn) [D-galactose] as the molecule, how does the “RI activity (in words)” value ([4]; 0.022 M in PBS solution) read?
**A.** Its value is “inhibit recrystallization as well as a 3% DMSO solution”.

**Q.** What about the “RI activity (in words)” value ([4]; 0.022 M in PBS solution, listed as galactose) of the same molecule?
**A.** Its value is “as efficient at inhibiting recrystallization as a 3% (v/v) DMSO solution; also recorded: possesses the most RI activity”.

**Q.** And the “RI activity (in words)” value ([4]; 0.044 M solution in PBS)?
**A.** The value was “RI activity similar to that of a 0.022 M solution”.

**Q.** What about the “RI activity (in words)” value ([4]; 0.22 M solution in PBS) of the same molecule?
**A.** The value was “effective inhibitor of recrystallization”.

**Q.** And the “Melting Point” value [2]?
**A.** The value was −0.069 °C.

**Q.** For `OCC1O[C@H](O[C@H]2OC(CO)[C@@H](O)C(O)C2O)C(O)C(O)[C@@H]1O` (stereo partly drawn) [D-trehalose], which “Melting Point” value [2] is on record?
**A.** Its value is −0.015 °C.

**Q.** For `N[C@@H](CCCCNC(=O)C[C@H]1OC(CO)[C@H](O)[C@H](O)C1O)C(=O)NCC(=O)NCC(=O)O` (stereo partly shown) [Compound 10], which “RI activity relative to PBS (in words)” value [5] is on record?
**A.** Its value is “do not show any RI activity”.

**Q.** For `OC[C@H]1O[C@@](CO)(O[C@H]2O[C@H](CO)[C@@H](O)[C@H](O)[C@H]2O)[C@@H](O)[C@@H]1O` [sucrose], which “RI activity (in words)” value ([4]; 0.022 M in PBS solution) is on record?
**A.** The value was “little effect upon recrystallization”.

**Q.** With `OCC1O[C@H](O[C@H]2OC(CO)[C@@H](O)C(O)C2O)C(O)C(O)[C@@H]1O` (stereo partly shown) [drawing 28] as the molecule, how does the “Molar Compressibility (K2°(s)x10^4)” value [3] read?
**A.** The value was −30.2 cm^3 mol^−1 bar^−1.

**Q.** For `OCC1O[C@H](O[C@@H]2C(CO)O[C@@H](O)C(O)C2O)C(O)C(O)[C@@H]1O` (stereo partly shown), which “Molar Compressibility (K2°(s)x10^4)” value [3] is on record?
**A.** The value was −23.7 cm^3 mol^−1 bar^−1.

**Q.** Which “RI activity relative to PBS (in words)” value [5] does the source give for “(L-lysine-glycine-glycine)-6-glycine [peptide control]” here?
**A.** Its value is “did not inhibit the growth of ice”.

**Q.** What does the source list for `[Cl-].[Na+]` [salt, sodium chloride]?
**A.** single ice crystal morphology [6]: Identical images; temperature below the melting point at which rapid crystal growth occurred / solution freezes [1]: −0.01 °C
